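Method: 48-hour compound exposure of cells in 96-well plates, five concentrations, linear interpolation of endpoints. The concentration for full growth arrest is given as TGI.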
Columns and labels:
Experiment in all cases: growth of human tumour cells (NCI), 48 h
786-0 renal = system: 786-0 renal
A498 renal = system: A498 renal
A549 NSCLC = system: A549 NSCLC
MCF7 breast = system: MCF7 breast
MOLT-4 leukemia = system: MOLT-4 leukemia
NCI/ADR-RES ovarian = system: NCI/ADR-RES ovarian
OVCAR-3 ovarian = system: OVCAR-3 ovarian
OVCAR-5 ovarian = system: OVCAR-5 ovarian
SF-268 CNS = system: SF-268 CNS
SF-295 CNS = system: SF-295 CNS

SMILES	TGI (786-0 renal)	TGI (A498 renal)	TGI (A549 NSCLC)	TGI (MCF7 breast)	TGI (MOLT-4 leukemia)	TGI (NCI/ADR-RES ovarian)	TGI (OVCAR-3 ovarian)	TGI (OVCAR-5 ovarian)	TGI (SF-268 CNS)	TGI (SF-295 CNS)
COC(=O)c1ccc(/C=C2\CCc3ccccc3C2=O)cc1	> 100 µM	> 100 µM	> 100 µM	> 100 µM	> 100 µM	> 100 µM	> 100 µM	> 100 µM	> 100 µM	> 100 µM
C/C(=N\Nc1ccccc1)C(CN(C)C)C(c1ccccc1)c1c(O)c2ccccc2oc1=O (configuration not stated)	> 100 µM	> 100 µM	> 100 µM	> 100 µM	> 100 µM	> 100 µM	> 100 µM	> 100 µM	> 100 µM	> 100 µM
CCCCCCCCCCCCCCCCOCC(Cl)COP(=O)(O)OP(=O)(O)OCC1OC(n2cnc3c(N)ncnc32)C(O)C1O (configuration not stated)	> 100 µM	> 100 µM	> 100 µM	> 100 µM	> 100 µM	> 100 µM	> 100 µM	> 100 µM	> 100 µM	> 100 µM
CC1=C2NCN(C)N=C2C(C#N)(C#N)C1(C#N)C#N	37.7 µM	> 100 µM	> 100 µM	> 70.7 µM	9.87 µM	> 68.5 µM	66.8 µM	> 91.7 µM	> 76.6 µM	> 100 µM
Cn1c(=O)sc2cc(C(=S)N3CCOCC3)ccc21	> 100 µM	> 100 µM	> 100 µM	> 100 µM	> 100 µM	> 100 µM	> 100 µM	> 100 µM	> 100 µM	> 100 µM
CO[P@]1(=O)O[C@@H](c2ccccc2)[C@H](O)[C@@]1(O)c1ccccc1	> 100 µM	> 100 µM	> 100 µM	> 100 µM	> 100 µM	> 100 µM	> 100 µM	> 100 µM	–	> 100 µM
CCOC(=O)/C(C#N)=C/N(CC)/N=C/c1ccccc1	> 100 µM	> 100 µM	> 100 µM	> 100 µM	> 100 µM	> 100 µM	> 100 µM	> 100 µM	> 100 µM	> 100 µM
c1ccc([P+](c2ccccc2)(c2ccccc2)c2ccc([P+](c3ccccc3)(c3ccccc3)c3ccccc3)cc2)cc1	> 100 µM	> 100 µM	> 100 µM	> 100 µM	> 100 µM	> 100 µM	> 100 µM	> 100 µM	> 100 µM	> 100 µM
CC/C(Cl)=N\OC(=O)Nc1ccc(F)cc1F	8.77 µM	74.8 µM	39.8 µM	44.9 µM	4.06 µM	44.5 µM	31.9 µM	35.1 µM	> 57.7 µM	> 60 µM
COc1ccc(/C=C2\CCC(CNc3ccc(Br)cc3)C2=O)cc1 (configuration not stated)	> 100 µM	> 100 µM	> 100 µM	> 100 µM	> 100 µM	> 100 µM	> 100 µM	> 100 µM	> 100 µM	> 100 µM
O=C1OI(C#Cc2ccccc2)c2ccccc21	11.2 µM	16.4 µM	39.7 µM	14.9 µM	5.34 µM	> 100 µM	10.6 µM	> 40.1 µM	9.96 µM	28.4 µM
COC(=O)/C=C/c1ccc2c(c1)CC1(Cc3ccccc3C1)C2	> 100 µM	> 100 µM	> 100 µM	> 100 µM	> 100 µM	> 100 µM	> 100 µM	> 100 µM	–	> 100 µM
O=S1(=O)CCN(c2ccccc2CC(c2c[nH]c3ccccc23)c2c[nH]c3ccccc23)CC1	27.8 µM	39.9 µM	> 78.2 µM	> 100 µM	8.87 µM	38.7 µM	20.9 µM	54.9 µM	62.2 µM	49.9 µM
Nc1ncc(/C=N/O)c(NCC2(CO)CC(CCc3ccccc3)C2)n1 (configuration not stated)	37.2 µM	29.1 µM	25.6 µM	22.2 µM	23 µM	70.6 µM	30.7 µM	44.1 µM	> 100 µM	22.7 µM
O=S(=O)(O)C1CCC(O)C2[N-]CCCC21.O=S(=O)(O)C1CCC(O)C2[N-]CCCC21.[Zn+2] (configuration not stated)	> 100 µM	> 100 µM	> 100 µM	> 100 µM	> 100 µM	> 100 µM	> 100 µM	> 100 µM	> 100 µM	> 100 µM
CC(C)(C)c1c(C(C)(C)C)c(=O)c1=O	> 100 µM	> 100 µM	> 100 µM	> 100 µM	> 100 µM	> 100 µM	> 100 µM	> 100 µM	> 100 µM	> 100 µM
CCN(CC)CCN(C)CCc1ccc(Br)cc1	> 100 µM	60.4 µM	> 100 µM	> 100 µM	> 100 µM	> 100 µM	> 100 µM	> 100 µM	> 100 µM	> 100 µM

SMILES	TGI (786-0 renal)	TGI (A498 renal)	TGI (A549 NSCLC)	TGI (MCF7 breast)	TGI (MOLT-4 leukemia)	TGI (NCI/ADR-RES ovarian)	TGI (OVCAR-3 ovarian)	TGI (OVCAR-5 ovarian)	TGI (SF-268 CNS)	TGI (SF-295 CNS)
CC(=O)c1ccc(NC(=O)CSc2nc(C)nc3c2sc(=S)n3-c2ccccc2)cc1	> 3.16 µM	> 3.16 µM	> 3.16 µM	> 10 µM	> 3.16 µM	> 3.16 µM	> 3.16 µM	> 3.16 µM	> 3.16 µM	> 3.16 µM
NC(=O)C1=CC2C3C=CC2(O)C(=O)OC3O1 (configuration not stated)	16 µM	59.3 µM	> 100 µM	18.5 µM	8.78 µM	7.22 µM	24.7 µM	> 64.5 µM	20.9 µM	27.1 µM
O=C1C=C(N2CCN(c3ccccn3)CC2)C(=O)c2c(O)ccc(O)c21	42.9 µM	52.2 µM	40.7 µM	18.6 µM	42.2 µM	11.5 µM	20.3 µM	> 46.4 µM	> 56.2 µM	51.5 µM
COC(=O)C(NC(=O)CSc1nnc(COc2ccc(Cl)cc2)n1-c1ccccc1)C(C)C (configuration not stated)	38.8 µM	> 100 µM	> 100 µM	> 100 µM	> 100 µM	82.1 µM	31.5 µM	75.9 µM	44.9 µM	42.2 µM
O=P(O)(O)CN1CCNCCN(CP(=O)(O)O)CCNCC1	> 100 µM	> 100 µM	> 100 µM	> 100 µM	> 100 µM	> 100 µM	> 100 µM	> 100 µM	> 100 µM	> 100 µM
Cc1cn([C@H]2[C@@H](CO)C[C@H]2O)c(=O)[nH]c1=O	> 100 µM	> 100 µM	> 100 µM	> 100 µM	> 100 µM	> 100 µM	> 100 µM	> 100 µM	> 100 µM	> 100 µM
COc1ccc(C(=O)c2ccc(-n3cc(/C=C/[N+](=O)[O-])c4ccccc43)cc2)cc1	11.2 µM	44.9 µM	> 100 µM	> 34.2 µM	> 100 µM	56.5 µM	27.1 µM	> 100 µM	> 54.1 µM	> 100 µM
COc1cccc(CN(C(=O)/C=C\Sc2ccccc2)C(C)(C)C)c1	> 100 µM	> 100 µM	> 100 µM	> 100 µM	> 100 µM	> 100 µM	> 100 µM	> 100 µM	–	> 100 µM
CC12CC(c3ccccc3O1)C(C(=O)Nc1cccc(F)c1)C(=O)N2 (configuration not stated)	> 100 µM	> 100 µM	> 100 µM	> 100 µM	54.2 µM	81.9 µM	> 100 µM	> 100 µM	> 100 µM	> 100 µM
O=C1CC2(CCNCC2)C(=O)N1N1CCOCC1	> 100 µM	> 100 µM	> 100 µM	> 100 µM	> 100 µM	> 100 µM	> 100 µM	> 100 µM	> 100 µM	> 100 µM
CC1(C)CCC2(C(=O)OC3OC(CO)C(O)C(O)C3O)CCC3(CO)C(=CCC4C5(C)CC(O)C(O)C(C)(C(=O)OC6OC(CO)C(O)C(O)C6O)C5CCC43C)C2C1 (configuration not stated)	> 100 µM	> 100 µM	> 100 µM	> 100 µM	> 100 µM	> 100 µM	> 100 µM	> 100 µM	> 100 µM	> 100 µM
O=C1/C(=C\c2cccc(Oc3ccccc3)c2)SC(c2ccccc2)N1c1cccc([N+](=O)[O-])c1 (configuration not stated)	> 100 µM	> 100 µM	> 100 µM	> 100 µM	> 100 µM	> 100 µM	> 100 µM	> 100 µM	> 100 µM	> 100 µM
Cc1c2cccc-2ccc2c1[nH]c1ccccc12	10.1 µM	28.5 µM	5.65 µM	12.9 µM	28.2 µM	> 27.3 µM	6.03 µM	4.77 µM	4 µM	5.62 µM
CCOC(=O)c1nc2ccccc2nc1NCc1ccc(Cl)cc1Cl	> 100 µM	> 100 µM	> 100 µM	> 100 µM	> 100 µM	> 100 µM	> 100 µM	> 100 µM	> 100 µM	> 100 µM
CC(C)=CCC[C@@H](C)c1c2[nH]c3ccccc3sc-2c(C)c(=O)c1=O	24.1 µM	35.5 µM	35.6 µM	> 75 µM	> 75 µM	12.1 µM	> 45.1 µM	> 75 µM	> 35.3 µM	40.6 µM
O=C1CSc2nnc(CCCCCCCCc3nnc4n3NC(=O)CS4)n2N1	> 100 µM	> 100 µM	> 100 µM	> 100 µM	> 100 µM	> 100 µM	> 100 µM	> 100 µM	> 100 µM	> 100 µM
CC(=O)O[C@H]1C(=O)N(c2cc3c4ccccc4ccc3c3ccccc23)[C@@H]1c1ccccc1	15.9 µM	89.6 µM	61.6 µM	> 100 µM	> 100 µM	29.5 µM	4.86 µM	> 100 µM	> 100 µM	53.5 µM
